Source: patent US12616753B2, “HSP70 inhibitors and methods of using same” (THE WISTAR INSTITUTE, priority 2020, dated 2026)

How the values were obtained:
[1] = test system: MC38 tumors; assay: Syngeneic model of MC38 tumors in C57Bl/6 mice; assay type: in vivo, mouse; conditions: 10 mg/kg every 48 hours
Procedure: (§1) FIGS. 5A-5F show AP-4-139B is efficacious against CRC in an immunocompetent model, and causes immune cell recruitment. FIGS. 5A-5B: Mouse CRC cell lines, MC38 (FIG. 5A) and CT26 (FIG. 5B), were plated at a density of 1,000 cells per well in 96-well plates. The next day, cells were treated with the indicated inhibitors for 72 hours. Cells were then subjected to the Alamar Blue cell viability assays. Shown are representative IC50 values of an average of six technical replicates and two biological replicates. FIG. 5C: Mouse CRC cell lines MC38 and CT26 were treated with 10 μM AP-4-139B for 24 or 48 hours and immunoblotted for HSP70, p53, AKT, Cleaved Lamin A (CLA), Cleaved Caspase 3, MRPS14, and GAPDH (loading control). The doublet detected for HSP70 is seen in other murine cell lines, and may represent a degradation product or post-translational modification. FIG. 5D: 1×10^6 MC38 cells were injected subcutaneously into the right flank of 6-8 week old male C57Bl/6 mice. Once tumors reached an approximate volume of 50 mm^3, mice were separated randomly into two groups: vehicle vs. AP-4-139B. Mice were treated with 10 mg/kg AP-4-139B every 48 hours. All mice were euthanized 20 days after the start of treatment. Tumor volumes were recorded using digital calipers and using the formula v=length×width^2×0.52. *** p<0.001. n=15 mice per group.
FIG. 5E: Immunohistochemistry (IHC) analysis of MC38 tumors treated with AP-4-139B. Shown are representative images (4-6 random fields of view per condition from four independent tumors) of CD8^+ T cells and Granzyme B (marker for activated immune cells). Respective IgG antibody was used as the negative control. Scale bars=100 μm. FIG. 5F: Quantification of FIG. 5E * p<0.05; ** p<0.01.
FIG. 9A: Body weights of mice injected with HT-29 tumor xenografts. Weights were measured at the start of the treatment to determine mouse toxicity. n.s. not significant, n=15 mice per group. FIG. 9B: Immunohistochemistry (IHC) analysis of MC38 tumors treated with AP-4-139B. Shown are representative images (4-6 random fields of view per condition from four independent tumors) of CD4^+ T cells. Respective IgG antibody was used as the negative control. Scale bars=100 μm. FIG. 9C: Quantification of FIG. 9B.
All studies were carried out in accordance with the recommendations in the Guide for the Care and Use of Laboratory Animals of the National Institutes of Health (NIH). All protocols were approved by The Wistar Institute Institutional Animal Care and Use Committee (IACUC). […] Tumor volumes were measured using digital calipers and tumor volume was calculated using the formula: volume=(length×width^2)×0.52. All mice were monitored daily for signs of pain or distress.

[2] = test system: WM983B tumor xenografts; assay: WM983B melanoma xenograft in NSG mice; assay type: in vivo, mouse; conditions: 12.5 mg/kg i.p. twice per week
Procedure: WM983B tumor xenografts were established in NSG mice. […] Tumors were collected at the end of the experiment and assessed for the level of the client protein MRPS14.
FIG. 18 comprises a series of images illustrating IHC of WM983B treated tumors using IgG negative control or antisera to MRPS14t.
AP-4-139B was tested as a single agent in a WM983B melanoma xenograph in mice. WM983B tumor xenografts were established in NSG mice. […] Tumors were collected at the end of the experiment and assessed for the level of the client protein MRPS14.

[3] = test system: MC38 and CT26; assay: Alamar Blue cell viability assay, mouse CRC cell lines; assay type: cell-based; conditions: 72 hours
Procedure: as §1

[4] = test system: HT-29 tumor xenografts; assay: HT-29 tumor xenograft in NSG mice; assay type: in vivo; conditions: 12.5 mg/kg three times per week
Procedure: FIGS. 4A-4F show AP-4-139B is efficacious as a single agent against human CRC in vitro and in vivo. FIG. 4A: Three CRC cell lines (HT-29, LS411N, and SW620) were treated with 10 μM of PET-16 or AP-4-139B for 48 hours. Cell were then subjected to viability assays using Trypan Blue exclusion. *** p<0.001. […] FIGS. 4B-4C: A panel of six CRC cell lines (SW620, HT-29, HCT 116+/−p53, RKO, and LS411N) were plated at a density of 1,000 cells per well in 96-well plates. The next day, cells were treated with the indicated inhibitors for 72 hours. Cells were then subjected to the Alamar Blue cell viability assays. Shown are representative IC50 values of an average of six technical replicates and two biological replicates. FIG. 4D: 2.5×10^6 HT-29 cells were injected subcutaneously into the right flank of NSG mice. Once tumors reached an approximate volume of 100 mm^3, mice were separated randomly into two groups: control vs. AP-4-139B. Mice were treated with 12.5 mg/kg AP-4-139B three times a week. All mice were euthanized 22 days after the start of treatment. Tumor volumes were recorded using digital calipers and using the formula v=length×width^2×0.52. *** p<0.001. n=10 mice per group. FIG. 4E: Immunohistochemistry (IHC) analysis of HT-29 xenograft tumors treated with AP-4-139B. Shown are representative images (4-6 random fields of view per condition) of Ki67 (proliferation) and Cleaved Lamin A (cell death). n=4 mice per group. Scale bar=100 μm. Respective IgG antibody was used as the negative control.
FIGS. 8A-8E show HSP70 inhibition is effective on mouse CRC cell lines. FIG. 8A: Association of HSPA1A gene expression and survival rate of patients with colorectal adenocarcinoma (COAD). Patient data was gathered from USCS Xena platform (GDC-TCGA COAD; n=435). Log-rank test was used to determine significance. p=0.0004. FIG. 8B: Association of HSPA1A gene expression and stage of COAD (n=440). Wilcoxon rank sum test was used to determine significance. * p<0.05, *** p<0.001. FIG. 8C: Body weights of mice injected with HT-29 tumor xenografts. Weights were measured at the start of the treatment to determine mouse toxicity. n.s. not significant, n=10 mice per group. FIG. 8D: H&E staining of livers and colons of mice injected with HT-29 tumor xenografts. Tissues were collected at the end of the study. FIG. 8E. Pharmacokinetic values of AP-4-139B in the liver, plasma, and brain from three CDI mice treated with 10 mg/kg of compound.
Shown are representative images of COXIV and a-SMA. n=5 mice per group. Scale bar=100 μm.
All studies were carried out in accordance with the recommendations in the Guide for the Care and Use of Laboratory Animals of the National Institutes of Health (NIH). All protocols were approved by The Wistar Institute Institutional Animal Care and Use Committee (IACUC). Mice were housed in plastic cages with ad libitum diet and maintained with a 12-hour dark/12-hour light cycle at 22° C. For human xenograft studies, 2.5×10^6 HT-29 cells were injected subcutaneously into the right flanks of 6-8 week old male NSG (NOD.Cg-Prkdcscid II2rgtm1 Wjl/SzJ) mice. For mouse xenograft studies, 1×10^6 MC38 cells were subcutaneously into the right flanks of 6-8 week old male C57Bl/6J mice. Tumor volumes were measured using digital calipers and tumor volume was calculated using the formula: volume=(length×width^2)×0.52. All mice were monitored daily for signs of pain or distress.

c1ccc(-c2cn3nc(CCCCCC[P+](c4ccccc4)(c4ccccc4)c4ccccc4)sc3n2)cc1 [AP-4-139B, Triphenyl(6-(6-phenylimidazo[2,1-b][1,3,4]thiadiazol-2-yl)hexyl)phosphonium bromide]
CD4+ T cells in tumors (IHC) [1]: increase in CD4+ T cells
infiltrating CD8+ T cells in tumors (IHC) [1]: large percentage of infiltrating CD8^+ T cells
weight loss of mice during treatment [1]: no evidence of weight loss
efficacy in syngeneic MC38 tumors ([1]; p<0.001): significant efficacy as a single agent
level of client protein MRPS14 in tumors (IHC) [2]: lose mitochondrial protein MPS14
tumor growth, WM983B xenograft [2]: inhibit tumor growth
IC50s in murine CRC lines (in words) [3]: comparable to that of oxaliplatin
Ki-67 staining in tumors [4]: reduced staining for Ki-67
cleaved lamin A staining in tumors (apoptosis) [4]: increased staining for cleaved lamin A
loss of mitochondria in treated tumors (COX IV staining) [4]: No evidence was found that AP-4-139B caused obvious loss of mitochondria
progression of HT-29 tumor xenografts [4]: significantly reduced the progression of HT-29 tumor xenografts
toxicity (weight loss, liver or colon architecture) [4]: No evidence for toxicity
